22 compounds from patent US11591341B2 (ALIGOS THERAPEUTICS, INC., priority 2019, dated 2023) can be followed below.

Where only a bound is given, the exact number is not on record here.

The subject of one test is HBV. The experiment in a line: HBV-DNA Antiviral Assay Using HepG2.2.15 Cells (extracellular HBV DNA by qPCR). The class given is cell-based. The following applies: Hepatitis B virus, 168 h; HBV DNA inhibition, HepG2.2.15 cells, extracellular HBV DNA by qPCR on day 7; read-out: EC50. Here is the method:
The following assay procedure describes the HBV antiviral assay. This assay uses HepG2.2.15 cells, which have been transfected with HBV genome, and extracellular HBV DNA quantification as endpoint. Cell viability is assessed in parallel by measuring the intracellular ATP content using the CellTiter-Glo© reagent from Promega.
On day 0, HepG2.2.15 cells were seeded in 96-well plates at a density of 6.0×10^4 cells/well (0.1 mL/well). The cells were incubated at 37° C. and 5% CO2.
On day 1, the test articles were diluted and added to cell culture wells (8 concentrations, 4-fold dilution, in duplicate). GLS4, Tenofovir and Sorafenib were used as reference compounds. 100 μL of culture medium containing the compounds was added to the plate, and the final total volume per well was 200 μL. The final concentration of DMSO in the culture medium was 0.5%. The plate map of compound treatment is shown below. The cells were cultured at 37° C. and 5% CO2 for 3 days.
On day 4, the plates were refreshed with culture media with compounds.
On day 7, cell viability was assessed using the CellTiter-Glo, and the cell culture supernatants were collected for determination of HBV DNA by qPCR.
Extracellular DNA was isolated with QIAamp 96 DNA Blood Kit per the manufacturer's manual. HBV DNA was then quantified by qPCR with HBV specific primers and probes as specified in Table 1 using the FastStart Universal MasterMix from Roche on an ABI-7900HT. The PCR cycle program consisted of 95° C. for 10 min, followed by 40 cycles at 95° C. for 15 sec and 60° C. for 1 min.
A DNA standard was prepared by dilution of the pAAV2 HBV1.3 plasmid with concentrations ranging from 10 to 1×10^7 copies/μL and used to generate a standard curve by plotting Ct value vs. the concentration of the HBV plasmid DNA standard. The quantity of HBV DNA in each sample was determined by interpolating from the standard curve.
Cell viability was calculated as follows: % Cell viability=(luminescence value of test sample−average luminescence value of blank)/(average luminescence value of 0.5% DMSO control−average luminescence of blank)×100%. HBV DNA inhibition was calculated as follows: 100-(HBV DNA copy number of test sample−HBV DNA copy number of ETV)/HBV DNA copy number of 0.5% DMSO control−HBV DNA copy number of ETV)×100%. The CC50, EC50 and EC90 values were determined by dose-response curves fitted by GraphPad Prism using “log (agonist) vs. response—Variable slope”.
By EC50 is commonly meant the midpoint of the concentration-response curve. Consider `C[C@@H]1Cn2c(c(C(=O)N[C@H](C)c3ccccc3)n(-c3ccc(-n4cccn4)cc3)c2=O)CN1C(=O)c1ccc(Br)c(Cl)c1` (mixture of isomers) [Example 466, (6RS)-7-(4-bromo-3-chloro-benzoyl)-6-methyl-3-oxo-N-[(1R)-1-phenylethyl]-2-(4-pyrazol-1-ylphenyl)-6,8-dihydro-5H-imidazo[1,5-a]pyrazine-1-carboxamide], for which the EC50 was in the range of 0.5 to 5 µM.
Still for that read-out and setting: next, `C[C@@H](NC(=O)c1c2n(c(=O)n1-c1ccc(-n3cccn3)cc1)C[C@H](C)N(C(=O)c1ccc(Br)c(Cl)c1)C2)c1ccccc1` (mixture of isomers) [Example 467, (6SR)-7-(4-bromo-3-chloro-benzoyl)-6-methyl-3-oxo-N-[(1R)-1-phenylethyl]-2-(4-pyrazol-1-ylphenyl)-6,8-dihydro-5H-imidazo[1,5-a]pyrazine-1-carboxamide]: 0.1 to 0.5 µM; `CC1Cn2c(c(C(=O)NCc3ccccc3-c3ncccn3)n(-c3ccc(-n4cccn4)cc3)c2=O)CN1C(=O)c1ccc(Br)c(Cl)c1` (racemic) [Example 468, rac-(6R)-7-(4-bromo-3-chloro-benzoyl)-6-methyl-3-oxo-2-(4-pyrazol-1-ylphenyl)-N-[(2-pyrimidin-2-ylphenyl)methyl]-6,8-dihydro-5H-imidazo[1,5-a]pyrazine-1-carboxamide]: 0.1 to 0.5 µM; `C[C@H]1Cn2c(c(C(=O)NCc3ccccc3-c3ncccn3)n(-c3ccc(-n4cccn4)cc3)c2=O)CN1C(=O)c1ccc(Br)c(Cl)c1` (racemic) [Example 469, rac-(6S)-7-(4-bromo-3-chloro-benzoyl)-6-methyl-3-oxo-2-(4-pyrazol-1-ylphenyl)-N-[(2-pyrimidin-2-ylphenyl)methyl]-6,8-dihydro-5H-imidazo[1,5-a]pyrazine-1-carboxamide]: under 0.1 µM.
The same measure, in the same setting: next, `C[C@@H]1Cn2c(c(C(=O)NCc3ccccc3-c3ncccn3)n(-c3ccc(-n4cccn4)cc3)c2=O)CN1C(=O)c1ccc(Br)c(C#N)c1` (stereo in doubt) [Example 470, rac-(6R)-7-(4-bromo-3-cyano-benzoyl)-6-methyl-3-oxo-2-(4-pyrazol-1-ylphenyl)-N-[(2-pyrimidinn-2-ylphenyl)methyl]-6,8-dihydro-5H-imidazo[1,5-a]yrazine-1-carboxamide]: 0.1 to 0.5 µM.
Still for that read-out and setting: next, `C[C@H]1Cn2c(c(C(=O)NCc3ccccc3-c3ncccn3)n(-c3ccc(-n4cccn4)cc3)c2=O)CN1C(=O)c1ccc(Br)c(C#N)c1` (stereo in doubt) [Example 471, rac-(6S)-7-(4-bromo-3-cyano-benzoyl)-6-methyl-3-oxo-2-(4-pyrazol-1-ylphenyl)-N-[(2-pyrimidin-2-ylphenyl)methyl]-6,8-dihydro-5H-imidazo[1,5-a]pyrazine-1-carboxamide]: 0.5 to 5 µM.
As for `C[C@@H](NC(=O)c1c2n(c(=O)n1-c1ccc(OC3CC3)cc1)CCN(C(=O)c1ccc(Br)c(Cl)c1)C2)c1ccccc1-n1cncn1` (stereo in doubt) [Example 472, 7-(4-bromo-3-chloro-benozyl)-2-[4-(cyclopropoxy)phenyl]-3-oxo-N-[rac-(1R)-1-[2-(1,2,4-triazol-1-yl)phenyl]ethyl]-6,8-dihydro-5H-imidazo[1,5-a]pyrazine-1-carboxamide], the EC50 was in the range of 0.5 to 5 µM.
Still for that read-out and setting: the value for `C[C@H](NC(=O)c1c2n(c(=O)n1-c1ccc(OC3CC3)cc1)CCN(C(=O)c1ccc(Br)c(Cl)c1)C2)c1ccccc1-n1cncn1` (stereo in doubt) [Example 473, 7-(4-bromo-3-chloro-benzoyl)-2-[4-(cyclopropoxy)phenyl]-3-oxo-N-[rac-(1S)-1-[2-(1,2,4-triazol-1-yl)phenyl]ethyl]-6,8-dihydro-5H-imidazo[1,5-a]pyrazine-1-carboxamide] was over 5 µM; that for `O=C1NCCCn2c1c1n(c2=O)CCN(C(=O)Nc2ccc(F)c(Cl)c2)C1` [Example 1, N-(3-chloro-4-fluorophenyl)-6,12-dioxo-1,3,4,8,9,10,11,12-octahydro-2H,6H-pyrazino[1′,2′:3,4]imidazo[1,5-a][1,4]diazepine-2-carboxamide] was over 5 µM.
Still for that read-out and setting: next, `CN1CCCn2c(c3n(c2=O)CCN(C(=O)Nc2ccc(F)c(Cl)c2)C3)C1=O` [Example 2, N-(3-chloro-4-fluorophenyl)-11-methyl-6,12-dioxo-1,3,4,8,9,10,11,12-octahydro-2H,6H-pyrazino[1′,2′:3,4]imidazo[1,5-a][1,4]diazepine-2-carboxamide]: 0.5 to 5 µM; `COc1ccc(CN2CCCn3c(c4n(c3=O)CCN(C(=O)Nc3ccc(F)c(Cl)c3)C4)C2=O)cc1` [Example 4, N-(3-chloro-4-fluorophenyl)-11-(4-methoxybenzyl)-6,12-dioxo-1,3,4,8,9,10,11,12-octahydro-2H,6H-pyrazino[1′,2′:3,4]imidazo[1,5-a][1,4]diazepine-2-carboxamide]: under 0.1 µM.
As to `O=C1NCCCn2c1c1n(c2=O)CCN(C(=O)c2ccc(Br)cc2)C1` [Example 5, 4-(4-bromobenzoyl)-4,7,9,13-tetraazatricyclo[7.5.0.0^[2,7]]tetradec-1-ene-8,14-dione], the EC50 is over 5 µM.
On to `O=C1NCCCn2c1c1n(c2=O)CCN(C(=O)c2ccc(Br)c(F)c2)C1` [Example 6, 2-(4-bromo-3-fluorobenzoyl)-1,2,3,4,8,9,10,11-octahydro-6H,12H-pyrazino[1′,2′:3,4]imidazo[1,5-a][1,4]diazepine-6,12-dione], for which the EC50 was over 5 µM.
Consider `O=C1NCCCn2c1c1n(c2=O)CCN(C(=O)c2ccc(Br)c(Cl)c2)C1` [Example 7, 2-(4-bromo-3-chlorobenzoyl)-1,2,3,4,8,9,10,11-octahydro-6H,12H-pyrazino[1′,2′:3,4]imidazo[1,5-a][1,4]diazepine-6,12-dione], for which the EC50 was over 5 µM.
On the same count and under the same terms, the value for `CN1CCCn2c(c3n(c2=O)CCN(C(=O)c2ccc(Br)c(Cl)c2)C3)C1=O` [Example 8, 2-(4-bromo-3-chlorobenzoyl)-11-methyl-1,2,3,4,8,9,10,11-octahydro-6H,12H-pyrazino[1′,2′:3,4]imidazo[1,5-a][1,4]diazepine-6,12-dione] was over 5 µM; that for `COc1ccc(CN2CCCn3c(c4n(c3=O)CCN(C(=O)c3ccc(Br)c(Cl)c3)C4)C2=O)cc1` [Example 9, 2-(4-bromo-3-chlorobenzoyl)-11-(4-methoxybenzyl)-1,2,3,4,8,9,10,11-octahydro-6H,12H-pyrazino[1′,2′:3,4]imidazo[1,5-a][1,4]diazepine-6,12-dione] was 0.1 to 0.5 µM; that for `CC(C)NC(=O)c1c2n(c(=O)n1-c1ccccc1)CCN(C(=O)Nc1ccc(F)c(Cl)c1)C2` [Example 10, N^7-(3-chloro-4-fluorophenyl)-3-oxo-2-phenyl-N1-(propan-2-yl)-2H,3H,5H,6H,7H,8H-imidazo[1,5-a]pyrazine-1,7-dicarboxamide] was 0.5 to 5 µM.
Still for that read-out and setting: next, `COc1ccc(CNC(=O)c2c3n(c(=O)n2-c2ccccc2)CCN(C(=O)Nc2ccc(F)c(Cl)c2)C3)cc1` [Example 11, N^7-(3-chloro-4-fluorophenyl)-N1-[(4-methoxyphenyl)methyl]-3-oxo-2-phenyl-2H,3H,5H,6H,7H,8H-imidazo[1,5-a]pyrazine-1,7-dicarboxamide]: 0.1 to 0.5 µM; `CC(C)NC(=O)c1c2n(c(=O)n1-c1ccccc1)CCN(C(=O)c1ccc(Br)c(Cl)c1)C2` [Example 12, 7-(4-bromo-3-chlorobenzoyl)-3-oxo-2-phenyl-N-(propan-2-yl)-2H,3H,5H,6H,7H,8H-imidazo[1,5-a]pyrazine-1-carboxamide]: over 5 µM; `COc1ccc(CNC(=O)c2c3n(c(=O)n2-c2ccccc2)CCN(C(=O)c2ccc(Br)c(Cl)c2)C3)cc1` [Example 13, 7-(4-bromo-3-chlorobenzoyl)-N-[(4-methoxyphenyl)methyl]-3-oxo-2-phenyl-2H,3H,5H,6H,7H,8H-imidazo[1,5-a]pyrazine-1-carboxamide]: 0.5 to 5 µM.
Still for that read-out and setting: the value for `COc1ccc(CNC(=O)c2c3n(c(=O)n2Cc2ccccc2)CCN(C(=O)c2ccc(Br)c(Cl)c2)C3)cc1` [Example 14, 2-benzyl-7-(4-bromo-3-chlorobenzoyl)-N-[(4-methoxyphenyl)methyl]-3-oxo-2H,3H,5H,6H,7H,8H-imidazo[1,5-a]pyrazine-1-carboxamide] was over 5 µM.

The test is the same for the next values; noted with them: Hepatitis B virus, HepG2.2.15, 168 h.
As for `O=C(Nc1ccc(F)c(Cl)c1)N1CCn2c(c3n(c2=O)CCCN(Cc2ccccc2)C3=O)C1` [Example 3, 11-benzyl-N-(3-chloro-4-fluorophenyl)-6,12-dioxo-1,3,4,8,9,10,11,12-octahydro-2H,6H-pyrazino[1′,2′:3,4]imidazo[1,5-a][1,4]diazepine-2-carboxamide], the EC50 lay in the range of 0.1 to 0.5 µM.
